Results as given in patent publication US10590389B2, “Endodermal cell production method, liver cell production method, pancreatic cell production method, endodermal cell induction promoter, liver cell induction promoting kit, pancreatic cell induction promoting kit, and microfluidic device” (Kyoto University, priority 2014, dated 2020).

Assays:
Type in all cases: cell-based
[1] = test system: H9 cell line (human ES cell); experiment: Number of endodermal cells produced after induction; settings: Example 2; seeding 5×10^4 to 2×10^5 cells/well; dispersed or clusters; 10 μmol/l Y27632; under any of these conditions
Protocol: Differentiation into endodermal cells was induced in the same manner as in Example 1, except that the H9 cell line was seeded at a cell density of 5×10^4 cells/well, 1×10^5 cells/well, or 2×10^5 cells/well. Also, differentiation into endodermal cells was induced in the same manner, except that, instead of the H9 cell line in the dispersed state, a H9 cell line forming cell clusters was seeded. Then, the endodermal cells obtained after the induction were collected. The endodermal cells obtained in (1) above were counted.

[2] = test system: H9 cell line (human ES cell); experiment: Endodermal cell induction from pluripotent cells with or without ROCK activity inhibitory compound (Example 8)
Protocol: On a 24-well dish (growth area: 1.9 cm^2/well, BD Falcon [trademark]), a H9 cell line (obtained from WiCell), which is a human ES cell, was seeded in a dispersed state at a cell density of 1×10^5 cells/well and cultured for 24 hours. The culture conditions were set as follows: 37° C. and 5% CO2. As a culture solution, mTeSR-1 (STEMCELL) containing 10 μmol/l Y27632 (ROCK activity inhibitory compound, Wako) and 100 ng/ml activin A (R&D Systems) was used. To the mTeSR-1A, a penicillin-streptomycin solution (Wako) had been added beforehand so that the mTeSR-1 contained 100 U/ml penicillin and 100 U/ml streptomycin. After the culture, the culture solution used on culture day 1 was removed, and a culture solution with the same composition was further added to each well. The cells were further cultured for one day under the above-described culture conditions. The culture solution used on culture day 2 was removed, and mTeSR-1 containing 10 μmol/l Y27632, 100 ng/ml activin A, 10 ng/ml BMP-4 (R&D Systems), 10 μmol/l LY294002 (PI3K activity inhibitory compound, CAYMAN CHEMICAL COMPANY), and 3 μmol/l CHIR99021 (GSK-3β activity inhibitory compound, STEMGENT) was added. Then, the cells were cultured for 24 hours under the above-described culture conditions. […]

[3] = test system: H9 cell line (human ES cell); experiment: CXCR4 expression in induced endodermal cells by flow cytometry; settings: dispersed or cluster-forming H9 cells, 10 μmol/l Y27632, under any of these conditions
Protocol: On a 24-well dish (growth area: 1.9 cm^2/well, BD Falcon [trademark]), a H9 cell line (obtained from WiCell), which is a human ES cell, was seeded in a dispersed state at a cell density of 1×10^5 cells/well and cultured for 24 hours. The culture conditions were set as follows: 37° C. and 5% CO2. As a culture solution, mTeSR-1 (STEMCELL) containing 10 μmol/l Y27632 (ROCK activity inhibitory compound, Wako) and 100 ng/ml activin A (R&D Systems) was used. To the mTeSR-1A, a penicillin-streptomycin solution (Wako) had been added beforehand so that the mTeSR-1 contained 100 U/ml penicillin and 100 U/ml streptomycin. […] CXCR4 expression in the stained cells was measured using a flow cytometer (BD FACSCanto [trademark] II, BD Biosciences). CXCR4 expression was also measured in the same manner, except that, from culture day 1 to culture day 4, TeSR-E8 or CDM-PVA was used instead of the mTeSR-1. Further, CXCR4 expression was measured in the same manner, except that, instead of the H9 cell line in the dispersed state, the H9 cell line forming cell clusters was seeded on culture day 1. As a control, CXCR4 expression was measured in the same manner, except that an APC-labeled control antibody (clone name: G155-178, BD Pharmigen) was used instead of the anti-human CXCR4 antibody. […] CXCR4 expression in the thus-obtained endodermal cells was measured in the same manner as in (2) in Example 1. […]

C[C@@H](N)[C@H]1CC[C@H](C(=O)Nc2ccncc2)CC1 [Y27632]
number of the endodermal cells obtained after the induction relative to the number of cells of the H9 cell line at the start of the induction [1]: at least six
probability of induction ([2]; endodermal cell induction examined on culture day 5, 10 μmol/l Y27632 on culture days 1-4): 100%
Number of times endodermal cell induction was performed ([2]; successful inductions / total inductions, examined on culture day 5, 10 μmol/l Y27632 on culture days 1-4 with activin A, BMP-4, LY294002, CHIR99021): 20/20
proportion of the cells positive to the endoderm cell marker CXCR4 ([3]; Example 1, after culture day 5, mTeSR-1, TeSR-E8 or CDM-PVA): ≥ 80.5%
proportion of the cells positive to the endoderm cell marker CXCR4 ([3]; Example 2, seeding 5×10^4, 1×10^5 or 2×10^5 cells/well): ≥ 83.7%
